System: inducible nitric oxide synthase (iNOS) in liver tissue
Assay: iNOS immunostaining and digital morphometry in liver tissue, STAM mouse model of steatohepatitis
Assay type: in vivo
Details: STAM mice
Experimental: The experimental model used in this example is the mouse in which diabetes was induced and a high fat diet was administered, a model that has been called STAM mice. Diabetes is induced immediately following birth with a single injection of streptozotocin and then four weeks later the mice are started on a high fat diet. This is a proven chronic inflammatory model in which the mice consistently develop steatohepatitis with hepatocyte fat accumulation, evidence of hepatocyte toxicity, portal and lobular inflammatory infiltrates, peri-sinusoidal fibrosis, advanced fibrosis with nodule formation, cirrhosis, and ultimately hepatocellular carcinoma in a certain percentage of animals.
GR-MD-02, produced as described in Example 1, was given in a dose of 60 mg/kg twice weekly intravenously for four (4) weeks starting at week 9 after initiation of the model through week 12.
GR-MD-02, produced as described in Example 1, was also given in a dose of 120 mg/kg, 60 mg/kg, 30 mg/kg, 10 mg/kg once weekly intravenously for six weeks at the each of the starting at week six of the model and ending at week 12.

galacto-rhamnogalacturonate [GR-MD-02]
quantification of iNOS immunoreactivity (FIG. 3) (10 mg/kg once weekly intravenously for six weeks): statistically significant reductions | quantification of iNOS immunoreactivity (FIG. 3) (30 mg/kg once weekly intravenously for six weeks): statistically significant reductions | quantification of iNOS immunoreactivity (FIG. 1B) (60 mg/kg twice weekly intravenously for 4 weeks, week 9 through week 12): statistically significant reduction | amount of iNOS detected in liver tissue (FIG. 1A) (60 mg/kg twice weekly intravenously for 4 weeks, week 9 through week 12, vs vehicle-treated control): markedly reduced | amount of iNOS detected in liver tissue (FIG. 2) (10, 30, 60 or 120 mg/kg once weekly intravenously for six weeks, week 6 to week 12, vs vehicle-treated control): reduced | quantification of iNOS immunoreactivity (FIG. 3) (various once weekly intravenous doses (10-120 mg/kg) for six weeks): reduction of iNOS immunoreactivity
